Source: publication PMC12028159, “L-Rhamnose Dehydrogenase LraA of Aspergillus niger Shows High Substrate Specificity Matching Its Expression Profile” (Journal of Fungi, 2025)

Tested on: LraA (L-rhamnose dehydrogenase)
Experiment: NADH formation at […] nm, Michaelis-Menten fit
Assay type: biochemical, Aspergillus niger
Settings: NAD+ 1 mM as co-substrate, 100 mM Tris-HCl pH 8.0, 25 °C

For C[C@@H]1OC(O)[C@H](O)[C@H](O)[C@H]1O (stereo partly drawn) [L-rhamnose], which Km is on record?
The Km was 2.4 ± 0.9 mM.
